One data set deals with S. epidermidis 18972. The data set is described as follows: MBIC/MIC secondary assay (crystal violet biofilm staining / OD600 growth). It is filed as cell-based, Staphylococcus epidermidis. As to conditions: S. epidermidis 18972, Table 2; for MBIC: lowest concentration inhibiting biofilm formation ≧80%; for MIC: Staphylococcus epidermidis, lowest concentration inhibiting growth ≧80%, read-out: MIC. How it is done:
Assays for detecting and measuring bacterial biofilm formation are known in the art. An example of a biofilm formation assay useful in detecting and characterizing biofilm inhibitor compounds is described in Example 1, infra. Briefly, bacterial cells are inoculated into growth medium in individual wells of a 96-well assay plate in the presence or absence of a compound (known biofilm inhibitor or test compound). After incubation for a specified time, growth medium and non-biofilm bacterial cells are removed from each of the wells. The bacterial cells in any biofilms that are adhered to the surface of a well are fixed by addition of ethanol. The ethanol is removed, and the fixed biofilm bacteria cells are stained with crystal violet (CV). The intensity of CV staining is directly correlated with bacterial biofilm formation and is measured in the wells by reading the optical density at 600 nm (OD600). The difference in biofilm formation between untreated control and treated cultures provides an indication of relative biofilm inhibition activity (anti-biofilm activity). Use of different concentrations of an inhibitor in multiple and otherwise duplicate cultures permits determination of a compound's Minimal Biofilm Inhibitory Concentration (MBIC), which is defined herein as the lowest concentration of a compound that inhibits biofilm formation by at least 80% (i.e., ≧80%) compared to untreated control cultures.
A higher throughput was achieved by formatting the assay for use in flat-bottomed 96-well assay plates (Costar 3590 assay plates, Corning Life Sciences, Lowell, Mass.). The biofilm cultures grew on the bottoms of each well in a surface attached mode. In each assay plate, columns 1 and 12 contained untreated cultures, which served as negative controls (0% biofilm inhibition). Each of the assay wells in columns 2-11 contained a unique small molecule from the Microbiotix Screening Library (MSL) at a final concentration of 100 μM. Assay plates were inoculated with 200 μl/well of a culture of Staphylococcus pidermidis 18972 in 0.5×Tryptic Soy Broth (TSB; Becton Dickinson, Franklin Lakes, N.J.) in which the concentration of glucose was adjusted to 0.25% (w/v). The bacterial inocula were prepared by making a 1:100 dilution of an overnight culture grown in TSB in the media used for the screen. After inoculation, assay plates were sealed with foil tape and incubated at 37° C. for 18-20 hours (h). The optical density at 600 nm (OD600) was measured for each well using a VICTOR2V™ multiplate reader (Perkin Elmer, Waltham, Mass.) in order to quantify overall bacterial growth. The assay plates were processed to remove bacterial growth media and non-biofilm cells from the bottom of each assay well. This was accomplished by using a BioTek ELx405™ plate washer (BioTek Instruments, Inc., Winooski, Vt.). Biofilm bacteria were fixed by addition of 50 μl of 95% ethanol for 30 minutes (min). The ethanol was removed, and the fixed biofilm cultures were stained with 50 μl of 0.06% crystal violet (CV) for 60 min. Excess CV was removed by repeated washes using the BioTek ELx405™ plate washer. The amount of CV bound to each assay well was quantified by measuring OD600 using a VICTOR2V™ plate reader (Perkin Elmer).
A secondary assay provided a quantitative measure of both anti-biofilm activity and antibacterial activity in terms of the Minimal Biofilm Inhibitory Concentration (MBIC) and the Minimal Inhibitory Concentration (MIC), respectively. The MBIC and MIC are defined as the lowest compound concentrations that inhibit biofilm formation and bacterial growth, respectively, by at least 80% (i.e., ≧80%). The MBIC/MIC assay is formatted in a manner that is similar to the Microbroth dilution assays described by the Clinical and Laboratory Standards Institute (CLSI; formerly NCCLS) in protocol M7-A7. The growth conditions were optimized for biofilm growth in 96-well assay plates such that the resulting CV staining was within the linear range of detection. […]

The next data set relates to S. aureus ATCC 35556. The data set is described as follows: MBIC/MIC secondary assay. In kind it is cell-based, Staphylococcus aureus. As to conditions: S. aureus ATCC 35556, Table 2; for MIC: Staphylococcus aureus, ATCC35556, read-out: MIC.
Data set [1] is described as follows: In vitro cytotoxicity assay (CC50), Alamar Blue. It is filed as cell-based. As to conditions: human, HeLa cells, 10% Fetal Bovine Serum. The procedure: Validated hits were tested for general cytotoxicity against a mammalian cell line. In this assay, an assay plate was seeded with an immortalized human cell line (HeLa) and exposed to a series of two-fold dilutions of each test compound for 72 hours in standard media containing 10% Fetal Bovine Serum. After exposure to the compounds, the cellular viability was assessed using Alamar Blue™ (AccuMed International, Inc.), an oxidation-reduction indicator that is useful for quantitatively measuring cell-mediated cytotoxicity. Alamar Blue reduction was quantified using fluorescence measurements, and the data were analyzed using a two-parameter curve-fitting program (Assay Explorer, Elsevier MDL, San Rafael, Calif.) to determine the CC50 value, i.e., the compound concentration that decreases cellular viability by 50%. Compounds with CC50/MBIC≧50 were given highest priority. Validated hits that met the criteria for high priority were re-ordered from the original vendor and re-tested.
A general note: Resazurin is reduced to fluorescent resorufin, in cell work by metabolically active cells.

Drawing on patent US20110098323A1, “INHIBITORS OF BACTERIAL BIOFILM FORMATION” (MICROBIOTIX, INC., priority 2009, published 2011), this text covers MBIC, MIC and CC50 for three molecules.

Structures are written as SMILES.

As usually defined, the CC50 is the concentration giving 50% cytotoxicity. Read a high CC50 as lower toxicity to the cells. In the case of `CCOc1cc(/C=C2\SC(=S)N(c3ccc(Br)cc3)C2=O)ccc1O` [MSL-049293, 3-(4-bromophenyl)-5-(3-ethoxy-4-hydroxybenzylidene)-2-thioxothiazolidin-4-one], the MBIC in the data set with S. epidermidis 18972 turned out to be 12.5 µM; with S. aureus ATCC 35556 it was 1.5625 µM. The MIC in the data set on S. epidermidis 18972 and in the data set on S. aureus ATCC 35556 was no less than 100 µM throughout. The CC50 at 72 h in data set [1] is no less than 100 µM.

Take `COc1cc(/C=C2\SC(=S)N(c3cccc(Cl)c3)C2=O)cc(Br)c1O` [MSL-049731, 3-(3-chlorophenyl)-5-(3-bromo-4-hydroxy-5-methoxybenzylidene)-2-thioxothiazolidin-4-one]: in the data set on S. epidermidis 18972, the MBIC amounted to 25 µM and the MIC was no less than 100 µM. Further, in the data set with S. aureus ATCC 35556, the MBIC was determined as 6.25 µM and the MIC is no less than 100 µM.

As for `COc1ccc(C2=C/C(=C/c3ccc(O)c(OC)c3)C(=O)O2)c(OC)c1` [MSL-051097, 3-(4-hydroxy-3-methoxybenzylidene)-5-(2,4-dimethoxyphenyl)furan-2(3H)-one], in the data set with S. epidermidis 18972, the MBIC was 25 µM and the MIC is no less than 100 µM. Moreover, in the data set on S. aureus ATCC 35556, the MBIC is 6.25 µM and the MIC is no less than 100 µM. This molecule also returned a CC50 at 72 h in data set [1] of 29.4 µM.
